Source: EPA's ToxRefDB 2

Columns and labels:
rat [1] = conditions: Developmental neurotoxicity study; sprague dawley; Injection; Intraperitoneal; dose end: 112 PND; group: cannot be grouped; developmental / developmental malformation / bone / kinked + developmental / offspring survival late / [other] / [other] + reproductive / …
rabbit = conditions: Prenatal developmental toxicity study, new zealand white, Oral, Gavage/Intubation, dose end: 19 GD
rat [2] = conditions: Chronic toxicity, sprague dawley, Oral, Feed, dose end: 104 week, group: systemic
rat [3] = conditions: Subchronic oral toxicity in rodents, sprague dawley, Feed, dose end: 90 day, group: systemic, systemic / organ weight / liver / absolute + systemic / organ weight / liver / relative to body weight + systemic / pathology microscopic / …
rat [4] = conditions: Combined chronic toxicity/carcinogenicity, sprague dawley, Oral, Feed, dose end: 104 week, group: systemic
mouse [5] = conditions: Carcinogenicity, cd1, Oral, Feed, dose end: 104 week, group: systemic
rat [6] = conditions: Prenatal developmental toxicity study, sprague dawley, Oral, Gavage/Intubation, dose end: 15 GD
rat [7] = conditions: Multigenerational reproductive toxicity study, sprague dawley, Oral, Feed, dose end: 2 generation
dog [8] = conditions: Chronic toxicity, beagle, Oral, Capsule, dose end: 52 week, group: systemic
dog [9] = conditions: Subchronic oral toxicity in nonrodent, beagle, Capsule, dose end: 90 day, group: systemic, systemic / clinical chemistry / alkaline phosphatase (alp/alk) / alkaline phosphatase (alp/alk) + systemic / organ weight / liver / relative…
mouse [10] = conditions: Carcinogenicity; cd1; Oral; Feed; dose end: 104 week; group: systemic; systemic / organ weight / liver / relative to body weight + systemic / pathology gross / liver / discolored + systemic / pathology …
rat [11] = conditions: Prenatal developmental toxicity study, sprague dawley, Oral, Gavage/Intubation, dose end: 15 GD; remark: listed apart in the source
[12] = group: developmental, developmental / developmental malformation / bone / absent + developmental / developmental malformation / bone / fused + developmental / …
[13] = group: maternal, systemic / in life observation / food consumption / food consumption + systemic / pathology microscopic / liver / apoptosis + systemic / …
[14] = systemic / pathology microscopic / testes / atrophy
[15] = systemic / pathology microscopic / testes / atrophy + systemic / organ weight / epididymis / relative to body weight + systemic / organ …
[16] = systemic / pathology microscopic / liver / dilatation + systemic / pathology microscopic / liver / inflammation + systemic / pathology …
[17] = systemic / pathology microscopic / liver / pigmentation + systemic / pathology microscopic / liver / vacuolization
[18] = systemic / pathology microscopic / liver / pigmentation + systemic / pathology microscopic / liver / vacuolization + systemic / pathology …
[19] = group: developmental, developmental / developmental malformation / bone / incomplete ossification
[20] = group: maternal, systemic / in life observation / body weight / body weight + systemic / in life observation / clinical signs / ataxia + systemic / in life …
[21] = group: offspring, systemic / in life observation / body weight / offspring (pup) weight gain + developmental / developmental landmark / eye opening / eye …
[22] = group: parental, systemic / pathology microscopic / liver / fatty change
[23] = group: parental, systemic / pathology microscopic / liver / fatty change + systemic / in life observation / body weight / body weight + systemic / in life …
[24] = group: reproductive, reproductive / offspring survival early / litter size / litter size
[25] = systemic / clinical chemistry / glucose / glucose
[26] = group: developmental, developmental / developmental malformation / bone / delayed ossification + developmental / developmental malformation / bone / incomplete …
[27] = group: maternal, systemic / in life observation / body weight / body weight gain + systemic / in life observation / clinical signs / urogenital staining + …

For `O=c1[nH]c(=O)n([C@H]2C[C@H](O)[C@@H](CO)O2)cc1Br` [5-Bromo-2'-deoxyuridine], the LEL (rat [1]) was 50 mg/kg/day, the LOAEL (rat [1]) was > 100 mg/kg/day and the NEL (rat [1]) was < 50 mg/kg/day. The NOAEL (rat [1]) was ≥ 100 mg/kg/day.
With `O=[N+]([O-])c1cc(C(F)(F)F)c(Cl)c([N+](=O)[O-])c1Nc1ncc(C(F)(F)F)cc1Cl` [Fluazinam] the LEL (rabbit; [12]) was 12 mg/kg/day, the LOAEL (rabbit; [12]) was 12 mg/kg/day and the NEL (rabbit; [12]) was 7 mg/kg/day. It also gave an NOAEL (rabbit; [12]) of 7 mg/kg/day, an LEL (rabbit; group: maternal, reproductive / reproductive performance / aborted / aborted) of 4 mg/kg/day and an LOAEL (rabbit; [13]) of 7 mg/kg/day. It also gave an NEL (rabbit; [13]) of 2 mg/kg/day, an NOAEL (rabbit; [13]) of 4 mg/kg/day and an LOAEL (rat [2]; [14]) of 3.9 mg/kg/day. It also gave an LEL (rat [2]; [15]) of 3.9 mg/kg/day, an NEL (rat [2]; [15]) of 1.9 mg/kg/day and an NOAEL (rat [2]; [15]) of 1.9 mg/kg/day. It also gave an LEL (rat [3]) of 38 mg/kg/day, an LOAEL (rat [3]) of 38 mg/kg/day and an NEL (rat [3]) of 3.8 mg/kg/day. It also gave an NOAEL (rat [3]) of 3.8 mg/kg/day, an LOAEL (rat [4]; [16]) of 3.8 mg/kg/day and an NOAEL (rat [4]; [16]) of 0.38 mg/kg/day. For the same compound, the LEL (rat [4]; [14]) was 0.04 mg/kg/day, the NEL (rat [4]; [14]) was < 0.04 mg/kg/day and the LEL (mouse [5]; [17]) was 10.7 mg/kg/day. The LOAEL (mouse [5]; [17]) was 10.7 mg/kg/day, the NEL (mouse [5]; [18]) was 1.12 mg/kg/day and the NOAEL (mouse [5]; [18]) was 1.12 mg/kg/day. For the same compound, the LEL (rat [6]; [19]) was 100 mg/kg/day, the LOAEL (rat [6]; [19]) was > 1000 mg/kg/day and the NEL (rat [6]; [19]) was 10 mg/kg/day. For the same compound, the NOAEL (rat [6]; [19]) was ≥ 1000 mg/kg/day, the LEL (rat [6]; [20]) was 1000 mg/kg/day and the LOAEL (rat [6]; [20]) was > 1000 mg/kg/day. The NEL (rat [6]; [20]) was 100 mg/kg/day, the NOAEL (rat [6]; [20]) was ≥ 1000 mg/kg/day and the LOAEL (rat [7]; group: offspring, systemic / in life observation / body weight / offspring (pup) weight gain) was 47.3 mg/kg/day. For the same compound, the LEL (rat [7]; [21]) was 47.3 mg/kg/day, the NEL (rat [7]; [21]) was 9.7 mg/kg/day and the NOAEL (rat [7]; [21]) was 9.7 mg/kg/day. The LEL (rat [7]; [22]) was 9.7 mg/kg/day, the LOAEL (rat [7]; [22]) was 9.7 mg/kg/day and the NEL (rat [7]; [23]) was 1.9 mg/kg/day. For the same compound, the NOAEL (rat [7]; [23]) was 1.9 mg/kg/day, the LEL (rat [7]; [24]) was 47.3 mg/kg/day and the LOAEL (rat [7]; [24]) was 47.3 mg/kg/day. For the same compound, the NEL (rat [7]; [24]) was 9.7 mg/kg/day, the NOAEL (rat [7]; [24]) was 9.7 mg/kg/day and the LEL (dog [8]; [25]) was 1 mg/kg/day. For the same compound, the NEL (dog [8]; [25]) was < 1 mg/kg/day, the LOAEL (dog [8]; systemic / in life observation / clinical signs / nasal dryness + systemic / pathology microscopic / stomach / hyperplasia) was 10 mg/kg/day and the NOAEL (dog [8]; systemic / in life observation / clinical signs / nasal dryness + systemic / pathology microscopic / stomach / hyperplasia + systemic / …) was 1 mg/kg/day. It also gave an LEL (dog [9]) of 100 mg/kg/day, an LOAEL (dog [9]) of 100 mg/kg/day and an NEL (dog [9]) of 10 mg/kg/day. The NOAEL (dog [9]) was 10 mg/kg/day, the LEL (mouse [10]) was 126 mg/kg/day and the LOAEL (mouse [10]) was 126 mg/kg/day. The NEL (mouse [10]) was < 126 mg/kg/day, the NOAEL (mouse [10]) was < 126 mg/kg/day and the LOAEL (rat [11]; [26]) was 250 mg/kg/day. It also gave an NEL (rat [11]; [26]) of 10 mg/kg/day, an NOAEL (rat [11]; [26]) of 50 mg/kg/day and an LEL (rat [11]; group: developmental, developmental / developmental malformation / bone / full supernumerary) of 50 mg/kg/day. For the same compound, the LEL (rat [11]; [27]) was 250 mg/kg/day, the LOAEL (rat [11]; [27]) was 250 mg/kg/day and the NEL (rat [11]; [27]) was 50 mg/kg/day. It also gave an NOAEL (rat [11]; [27]) of 50 mg/kg/day.
